Results from the supplement of paper PMC10307832.

Legend:
Test in all cases: relative viability (nuclei count vs DMSO), 5 days (fraction); higher = more cells survive
[1] = compound: C[C@]1(O)C[C@@H](c2nc(-c3ccc4ccc(-c5ccccc5)nc4c3)c3c(N)nccn32)C1 [Linsitinib] + NC(=O)Nc1cc(-c2cccc(F)c2)sc1C(=O)N[C@H]1CCCNC1 [AZD7762] (partner 0.2 µM)
Outline: (§1)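 The day after seeding in 1536-well plates, lung cancer cell lines were treated by pin tool with a single drug, or with a fixed anchor-drug dose together with five library-drug doses (not always all listed) in √10 steps. After 5 days, a combined fix-and-stain solution (final 0.05% Triton X-100, 1% formaldehyde, 1 ug/ml Hoechst) was added. Nuclei counted on 4× images gave relative viability as treated counts over vehicle counts, reported as the median of duplicate plates.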

[2] = compound: Cc1ccc(C(=O)N(CCCN)[C@@H](c2nc3cc(Cl)ccc3c(=O)n2Cc2ccccc2)C(C)C)cc1 [Ispinesib] + CC(C)C[C@H](NC(=O)[C@H](Cc1ccccc1)NC(=O)c1cnccn1)B(O)O [Bortezomib] (partner 0.002 µM)
Outline: as §1

[3] = compound: Cc1ccc(C(=O)N(CCCN)[C@@H](c2nc3cc(Cl)ccc3c(=O)n2Cc2ccccc2)C(C)C)cc1 [Ispinesib] + CS(=O)(=O)CCNCc1ccc(-c2ccc3ncnc(Nc4ccc(OCc5cccc(F)c5)c(Cl)c4)c3c2)o1 [Lapatinib] (partner 2 µM)
Outline: as §1

[4] = compound: C[C@]1(O)C[C@@H](c2nc(-c3ccc4ccc(-c5ccccc5)nc4c3)c3c(N)nccn32)C1 [Linsitinib] + Cc1cc(Nc2cc(N3CCN(C)CC3)nc(Sc3ccc(NC(=O)C4CC4)cc3)n2)n[nH]1 [Tozasertib] (partner 0.1 µM)
Outline: as §1

Row | Cell Line | relative viability ([1]; first compound 0.01 µM) | relative viability ([1]; first compound 0.03162 µM) | relative viability ([1]; first compound 0.1 µM) | relative viability ([1]; first compound 0.3162 µM) | relative viability ([1]; first compound 1 µM) | relative viability ([2]; first compound 0.001 µM) | relative viability ([2]; first compound 0.003162 µM) | relative viability ([2]; first compound 0.01 µM) | relative viability ([2]; first compound 0.03162 µM) | relative viability ([2]; first compound 0.1 µM) | relative viability ([3]; first compound 0.001 µM) | relative viability ([3]; first compound 0.003162 µM) | relative viability ([3]; first compound 0.01 µM) | relative viability ([3]; first compound 0.03162 µM) | relative viability ([3]; first compound 0.1 µM) | relative viability ([4]; first compound 0.01 µM) | relative viability ([4]; first compound 0.03162 µM) | relative viability ([4]; first compound 0.1 µM) | relative viability ([4]; first compound 0.3162 µM) | relative viability ([4]; first compound 1 µM)
1 | BEN | 0.563 | 0.771 | 0.617 | 0.742 | 0.677 | 0.927 | 1.01 | 0.851 | 0.431 | 0.201 | 0.906 | 0.892 | 0.7 | 0.357 | 0.247 | 0.537 | 0.611 | 0.481 | 0.377 | 0.486
2 | NCI-H647 | 0.467 | 0.504 | 0.493 | 0.212 | 0.331 | 0.98 | 0.849 | 0.655 | 0.16 | 0.167 | 1.28 | 0.693 | 0.481 | 0.106 | 0.114 | 0.342 | 0.262 | 0.319 |  | 0.217
3 | PC-14 | 0.296 | 0.307 | 0.34 | 0.305 | 0.27 | 0.859 | 1.01 | 0.962 | 0.71 | 0.0916 | 0.331 | 0.397 | 0.363 | 0.421 | 0.125 | 0.559 | 0.542 | 0.578 | 0.486 | 0.427
4 | HCC-78 |  | 0.56 | 0.415 | 0.666 | 0.472 | 0.504 | 0.531 | 0.459 | 0.308 | 0.394 | 0.762 | 1.47 | 0.811 |  | 0.308 | 0.643 | 0.482 | 0.418 | 0.378 | 0.319
5 | NCI-H1666 | 0.704 | 0.834 | 0.828 | 0.645 | 0.597 | 0.704 | 0.761 | 0.64 | 0.305 | 0.321 | 0.703 | 0.801 | 0.596 | 0.279 | 0.292 | 0.595 | 0.628 | 0.587 | 0.545 | 0.434
6 | LU99A | 0.285 | 0.435 | 0.371 |  | 0.196 | 1.06 | 1.12 | 1.33 | 0.223 | 0.183 | 0.992 | 1.11 | 1.14 | 0.192 | 0.201 | 0.284 | 0.27 | 0.281 | 0.264 | 0.234
7 | NCI-H596 | 1.19 | 1.06 | 1 | 1.14 | 0.92 | 1.14 | 1.22 | 1.12 | 1.08 | 0.463 | 0.978 | 1.18 | 1.02 | 0.897 | 0.402 | 0.889 | 0.948 | 0.822 | 0.724 | 0.812
8 | 201T | 0.554 | 0.59 | 0.675 | 0.509 | 0.612 | 1.13 | 1.16 | 0.947 | 1.02 | 0.669 | 1.06 | 1.07 | 1.1 | 0.916 | 0.431 | 0.951 | 0.929 | 0.988 | 0.977 | 0.938
9 | HCC-15 | 1.07 | 1.15 | 1.16 | 0.839 | 1.11 | 1.14 | 1.19 | 1.24 | 0.563 | 0.226 | 0.91 | 0.983 | 1.03 | 0.402 | 0.14 | 0.389 | 0.424 | 0.404 |  | 0.319
